From patent US5756504A, “Tocolytic oxytocin receptor antagonists” (priority 1996, dated 1998)
Read-outs that look alike come from different tables or passages of the source.

Assays:
[1] = compared with ritodrine; cited from earlier work
[2] = target: T1, oxytocin receptor ([^3 H]OT binding, uterine tissue) (Rattus norvegicus, UniProt P70536); test: [3H]oxytocin radioligand binding competition assay, rat uterus; set-up: species or system rat (Sprague-Dawley)
T1 construct: tissue Taconic Farms, Germantown, N.Y. (animals); host or cells: uterus of nonpregnant adult Sprague-Dawley rats pretreated with diethylstilbestrol propionate, crude membranes
T1 sequence (P70536 1-388): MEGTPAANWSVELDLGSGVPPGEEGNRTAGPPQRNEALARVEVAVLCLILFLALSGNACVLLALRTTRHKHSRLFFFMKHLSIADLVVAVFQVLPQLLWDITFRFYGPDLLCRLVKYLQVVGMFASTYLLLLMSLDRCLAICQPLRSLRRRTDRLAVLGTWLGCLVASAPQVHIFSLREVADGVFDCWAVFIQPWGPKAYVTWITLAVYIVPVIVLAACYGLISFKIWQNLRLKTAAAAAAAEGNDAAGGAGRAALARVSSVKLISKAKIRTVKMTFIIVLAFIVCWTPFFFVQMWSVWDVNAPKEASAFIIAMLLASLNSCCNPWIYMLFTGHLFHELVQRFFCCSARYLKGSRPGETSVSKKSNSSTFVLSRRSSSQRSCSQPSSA
Method: RADIOLIGAND BINDING ASSAYS
Ther., 256(1): 304-308 (1991)]. Uterine tissue was taken from nonpregnant adult Sprague-Dawley rats (Taconic Farms, Germantown, N.Y.) pretreated (18-24 h) with diethylstilbestrol propionate (DES; 300 μg/kg, i.p.). Uterine tissue (full thickness) was also taken with informed consent from nonlabor pregnant women undergoing cesarean section at 38 to 39 weeks gestation (Oregon Health Sciences Center, Portland, Oreg.). Liver and kidney medulla samples were taken from male rats and from human surgical and early postmortem donors (National Disease Research Interchange, Philadelphia Pa.; Analytical Biological Services, Wilmington, Del.).
Nonspecific binding was determined using 1 μM unlabeled OT or AVP in their respective assays. The binding reactions were initiated by the addition of tissue preparation and terminated by filtration using a Skatron cell harvester (model 7019, Skatron, Inc., Sterling, Va.). […] The final protein concentration for the various tissues in each assay ranged from 150 to 300 μg/ml [Lowry, P. H.; Rosebrough, N. J.; Farr, A. L.; Randall, R. J.; J. Biol. Chem., 193:265-275 (1951)].
Data is either reported as a given percentage of inhibition at a specified concentration,or if an IC50 was calculated, as a nanomolar concentration.

[3] = cited from earlier work
uterus = test: uterine contraction in situ in nonpregnant rat; format: in vivo, rat (Sprague-Dawley); conditions: i.v., DES-pretreated anesthetized rats
Method: 2. OT antagonist activity in the nonpregnant rat
The procedure for measuring isometric contraction of the uterus in situ was adapted from that of Chan et al. [1974] as previously described [Pettibone et al., 1989]. Sprague-Dawley rats (200-300 g, Taconic Farms, Germantown, N.Y.) pretreated with DES (0.25 mg/kg, i.p.; 18 h) were anesthetized with urethane (1.75 g/kg, i.p.), a tracheal cannula was inserted, and a femoral vein was cannulated. The left uterine horn was exposed, and the anterior part of the horn was secured with surgical silk to an anchor post. A second ligature about 3 cm posterior to the first tie was connected to a force transducer and maintained at a tension of 1 g. Signals from the transducer were amplified and recorded. The contractile response of the uterus to OT was quantified by computerized measurement of the area under the contraction-time curve for a 10-min period immediately after the injection of OT. The following protocol was adopted for most experiments. […] The contractile response obtained from the third injection was set as 100%. Areas determined after each injection was expressed as a percentage of the area obtained for the third injection. […] The dose of test compound required to reduce the response to OT by 50% (AD50) was calculated from the contractile areas obtained after the fourth injection of OT (i.e., 5 min postinfusion of test compound). […]

Structure (SMILES) | IC50 [2] [nM] | also measured
CCO [Ethanol] | – | effectiveness in preventing premature labor [1]: as effective as ritodrine in preventing premature labor; reduction in incidence of fetal respiratory distress [1]: does not produce a corresponding reduction in the incidence of fetal respiratory distress
COc1ccc(CC(=O)N2CCC3(C=Cc4ccccc43)CC2)c(OC)c1 [Example 1, 1'-(2,4-Dimethoxyphenylacetyl)-spiro[1H]indene-1,4'-piperidine] | 400 | –
O=C(Nc1ccc(CC(=O)N2CCC3(C=Cc4ccccc43)CC2c2ccccc2)cc1)c1ccc2[nH]cnc2c1 (stereo not drawn) [Example 2, 1'-(4-(Benzimidazole-5-carboxylamino)phenylacetyl)-2'-phenylspiro[1H]indene-1,4'-piperidine] | 120 | –
O=C(Nc1ccc(CC(=O)N2CCC3(C=Cc4ccccc43)CC2)cc1)c1ccc2cc[nH]c2c1 [Example 4, 1'-(4-(Indole-6-carboxylamino)phenylacetyl)spiro[1H]indene-1,4'-piperidine] | 1600 | –
COc1ccc(CC(=O)N2CCN(c3ccccc3C)CC2)c(OC)c1 [Example 6, 1-(2,4-Dimethoxyphenylacetyl)-4-(2-methylphenyl)piperazine] | 540 | –
COc1ccc(CC(=O)N2CCN(c3ccccc3C)CC2C(N)=O)c(OC)c1 (stereo not drawn) [Example 7, 1-(2,4-Dimethoxyphenylacetyl)-4-(2-methylphenyl)piperazine-2-carboxamide] | 80 | –
Cc1ccccc1N1CCN(C(=O)Cc2ccc(NC(=O)c3ccc4[nH]cnc4c3)cc2)C(C(N)=O)C1 (stereo not drawn) [Example 8, 1-(4-(Benzimidazol-5-carboxylamino)phenylacetyl)-4-(2-methylphenyl)piperazine-2-carboxamide] | 30 | –
COc1cc(OC2CCN(C(C)=O)CC2)ccc1CC(=O)N1CCN(c2ccccc2C)CC1C(N)=O (stereo not drawn) [Example 9, 1-(2-Methoxy-4-(1-acetyl-4-piperidyloxy)phenylacetyl)-4-(2-methylphenyl)piperazine-2-carboxamide] | 34 | –
CCN(CC)CCS(=O)(=O)N1CCC(Oc2ccc(CC(=O)N3CCN(c4ccccc4C)CC3C(N)=O)c(OC)c2)CC1 (stereo not drawn) [Example 11, 1-(2-Methoxy-4-(1-(2-(N,N-Diethylamino)ethylsulfonyl)-4-piperidyloxy)phenylacetyl)-4-(2-methylphenyl)piperazine-2-carboxamide] | 21 | –
COc1cc(OC2CCN(S(=O)(=O)CCNC3CC3)CC2)ccc1CC(=O)N1CCN(c2ccccc2C)CC1C(N)=O (stereo not drawn) [Example 12, 1-(2-Methoxy-4-(1-(2-(N-cyclopropylamino)-ethylsulfonyl)-4-piperidyloxy)phenylacetyl)-4-(2-methylphenyl)piperazine-2-carboxamide] | 20 | –
COc1cc(OC2CCN(c3c(O)c(=O)c3=O)CC2)ccc1CC(=O)N1CCN(c2ccccc2C)CC1C(N)=O (stereo not drawn) [Example 14, 1-(2-Methoxy-4-(1-(3-hydroxy-3-cyclobutene-1,2-dion-4-y)-4-piperidyloxy)phenylacetyl)-4-(2-methylphenyl)piperazine-2-carboxamide] | – | IC50 ([2]; read-out: Result For [^3 H]OT (IC50), rat uterus membranes, 1 nM [^3 H]OT): 24 nM
COc1cc(OC2CCN(Cc3cccnc3)CC2)ccc1CC(=O)N1CCN(c2ccccc2C)CC1C(N)=O (stereo not drawn) [Example 15, 1-(2-Methoxy-4-(-1-((pyrid-3-yl)methyl)-4-piperidyloxy)phenylacetyl)-4-(2-methylphenyl) piperazine-2-carboxamide] | 28 | –
O=S(=O)([O-])[O-].[Mg+2] [Magnesium sulfate] | – | toxicity above therapeutic plasma range ([3]; plasma concentrations above 4 to 8 mg/dL): can cause inhibition of cardiac conduction and neuromuscular transmission, respiratory depression and cardiac arrest
CC[C@H](C)[C@@H]1NC(=O)[C@H](Cc2ccc(O)cc2)NC(=O)[C@@H](N)CSSC[C@@H](C(=O)N2CCC[C@H]2C(=O)N[C@@H](CC(C)C)C(=O)NCC(N)=O)NC(=O)[C@H](CC(N)=O)NC(=O)[C@H](CCC(N)=O)NC1=O [OT, oxytocin] | – | ED50 dose of OT (uterine contraction) (uterus): ~1 µg/kg
CC(NCCc1ccc(O)cc1)C(O)c1ccc(O)cc1 (stereo not drawn) [Ritodrine] | – | side effects ([3]; tocolytic use, in the mother): causes a number of cardiovascular and metabolic side effects in the mother, including tachycardia, increased renin secretion, hyperglycemia (and reactive hypoglycemia in the infant)
CC(C)(C)NCC(O)c1ccc(O)c(CO)c1 (stereo not drawn) [albuterol] | – | side effects ([3]; in vivo): side effects similar to those of ritodrine
CC(C)(C)NCC(O)c1cc(O)cc(O)c1 (stereo not drawn) [terbutaline] | – | side effects ([3]; tocolytic use, in the mother): side effects similar to those of ritodrine
